# Test results from patent US8309068B2, “Isolated polypeptides and methods of improving muscle strength” (Myostin Therapeutics Pty Ltd., priority 2006, dated 2012).
# Where no end group is shown, it is not given here.
# Legend:
# myostatin = assay: C2C12 myoblast proliferation competition assay: wild type myostatin competed with antagonists; assay type: cell-based; conditions: antagonist 1, 5 and 10 μg/ml; myostatin 2.25 μg/ml
# Protocol: […] C2C12 myoblasts were grown in Dulbecco's modified eagle medium according to the standard techniques (Thomas et al, 2000). The myoblast proliferation assay was carried out in uncoated 96-well microtitre plates. C2C12 cultures were seeded at 1000 cells/well. Following a 16-hour attachment period, test media containing either recombinant wild type myostatin or different myostatin antagonists were added and cells were incubated for a further 48 or 72 hour period. For competition assay, wild type myostatin was competed with different concentrations of myostatin antagonists prior to the addition into the media. After the incubation period, proliferation was assessed using methylene blue photometric endpoint assay as previously described (Thomas et al, 2000).
# satellite cells = assay: Single muscle fibre satellite cell activation assay (PCNA labeling); assay type: cell-based, mice
# Protocol: Single fibres were isolated as previously described Rosenblatt et al., (1995). Briefly, 1 and 24 month old wild-type mice were euthanized by CO2 gas followed by cervical dislocation. TA were dissected out and digested in 0.2% (w/v) type 1A collagenase (>260 CDU/mg, Sigma) in Dulbecco's modified Eagle medium (DMEM) (Invitrogen) for 60 minutes at 37° C. Muscles were transferred to DMEM +10% horse serum (HS) +0.5% chicken embryo extract (CEE) and fibres were separated by gentle trituration. Isolated fibres were transferred to 4 well chamber slides (Becton Dickinson) coated with 10% matrigel (Becton Dickinson) and fixed with 100% ice cold methanol for 10 minutes after culturing up to 72 hours at 37° C. in 5% CO2.
# Proliferating Cell Nuclear Antigen (PCNA) is expressed in cells that are actively undergoing cell cycle but not in quiescent cells. […] However, upon activation, satellite cells are activated to express PCNA and regenerate the muscle by replenishing the muscle fibres. Thus PCNA is a very reliable antigen to marker for the activated satellite cells.
# In order to determine the effect of myostatin antagonists on satellite cell activation, single muscle fibres from TA muscle of young (1 month) or old (24 month) wild type mice were cultured in presence of 5 μg/ml of myostatin antagonist 320, 310 or 300, in culture media for 24, 48 and 72 hours and fixed with methanol and washed in PBS. The fixed fibres were permeabilised in 0.5% TritonX-100 in PBS for 10 minutes, blocked in 10% normal goat serum and 0.35% carrageenan lambda in PBS for 30 minutes at room temperature then incubated with a 1:100 dilution of anti-PCNA antibody in blocker overnight. Primary antibody was detected using goat anti-mouse-alexa fluor 546 and fibres were counterstained with DAPI. PCNA positive activated satellite cells were counted under microscope and expressed as a percent of total myonuclei.
# primary myoblasts = assay: Migration of primary myoblasts isolated from mice treated in vivo; conditions: 6 μg/g BW SC three times a week for six weeks; three chemo-attractant media; vs saline
# From the text: In a second myoblast migration assay, primary myoblasts isolated form hind limb of saline treated (control) and myostatin antagonist 300 treated mice (as described in example 4 below). Three chemo-attractant media were used: DMEM containing 2% horse serum (HS) and 5% chicken embryo extract (CEE) (optimal chemo-attractant); DMEM containing only 5% CEE or DMEM containing only 2% HS (both suboptimal chemo-attractants). Plain DMEM was used as negative control. On a 24-well plate, the bottom wells were filled with test or control media. Seventy-five thousand cells were added to the top wells. The plate was incubated for 7h at 37° C., 5% CO2. […] The membrane was then fixed, stained in Gill's hematoxylin and wet mounted on slides. Migrated cells were counted on four representative fields per membrane and the average number plotted.
# An animal trial was conducted to assess the effects of myostatin antagonist 300 in improving muscle function. Sixteen month old mice were divided into two groups of ten. While the control group received saline subcutaneous (SC) injections, the other group received myostatin antagonist 300 SC at 6 μg/gram of BW three times a week for six weeks. The functional improvement of sarcopenic muscle was assessed by measuring grip strength of mice at the end of trial. Grip strength was measured in Newtons.
# [1] = system: bone marrow derived macrophages; assay: Migration of bone marrow derived macrophages from mice treated in vivo; conditions: 6 μg/g BW SC three times a week for six weeks; ZAMS 11%, 22% or 33%; vs saline
# From the text: For chemotaxis analysis of macrophages bone marrow was isolated from saline treated (control) and myostatin antagonist 300 treated mice (as described in example 4, below), and plated at 5×10^6 cells/plate in DMEM 10% FBS plus 10% L929 conditioned medium (containing CSF-1) for 5 days to induce macrophage differentiation. The macrophages were then harvested and used in the assay. Three concentrations of DMEM containing Zymosan-activated mouse serum (ZAMS) was used, 33% (optimum chemo-attractant concentration), 22% and 11% (suboptimal chemo-attractant concentrations). Plain DMEM was used as negative control. On a 24-well plate, the bottom wells were filled with test or control media. Seventy-five thousand cells were added to the top wells containing polyethylene terephthalate (PET) 0.8 μm membranes. The plate was incubated for 4h at 37° C., 5% CO2. […] The membrane was then fixed, stained in Gill's hematoxylin and wet mounted on slides. Migrated cells were counted on four representative fields per membrane and the average number plotted.
# An animal trial was conducted to assess the effects of myostatin antagonist 300 in improving muscle function. Sixteen month old mice were divided into two groups of ten. […] The functional improvement of sarcopenic muscle was assessed by measuring grip strength of mice at the end of trial. Grip strength was measured in Newtons.
substance,measurement,setting,value
"myostatin antagonist 300: recombinant peptide, amino acids 267-300 of bovine myostatin, with N terminal and C terminal tag (SEQ ID NO: 6) (DFGLDCDEHSTESRCCRYPLTVDFEAFGWDWIIA; cysteine pairing not given here; also: N- and C-terminal tags; listed as Homo sapiens)",rescue of the proliferation-inhibiting effects of myostatin on myoblasts,myostatin,rescued to levels similar to those observed in the positive control
same,percentage of activated satellite cells,"satellite cells; single fibres from old (2 year old) mice, 5 μg/ml, 24 or 48 hours",Significant increases
same,"percentage of activated satellite cells, comparison among antagonists and times","satellite cells; single fibres from old (2 year old) mice, after 48 hours",greatest increase
same,number of satellite cells activated (PCNA positive nuclei),"satellite cells; single fibres from young (1 month old) wild type mice, 5 μg/ml, 24 or 48 hours",significant increase
same,migration rates of myoblasts isolated from treated mice,primary myoblasts,significantly increased migration rates
same,migratory ability of macrophages isolated from treated mice,[1],significantly increased
